Holding throughout (assay type): cell-based
The subject of one assay is Corynebacterium Ax 20. The assay can be described thus: Inhibition of release of 3-hydroxy-3-methyl-hexanoic acid from Nα-(3-hydroxy-3-methyl-hexanoyl)-glutamine by bacterial cells (GC-analysis). The settings on record: for inhibition at 10 ppm / inhibition at 100 ppm / inhibition at 500 ppm / inhibition at 1000 ppm: Corynebacterium; for inhibition at 500 ppm: 500 ppm test compound; for inhibition at 1000 ppm: 1000 ppm test compound; for kind of inhibition (true inhibitor or alternative substrate): conclusion from Tables 1 and 2, prolonged preincubation; for IC 50 (Concentration for 50% inhibition of malodour release): estimated from the data in Table 1; for inhibitory activity compared to compound II: relative to compound II; for inhibition of malodour release: Compound Ia; for efficacy as inhibitors: general statement in the description. As for the experimental part: (§1) Corynebacterium Ax 20 was grown overnight, harvested and resuspended in a phosphate buffer (50 mM, pH 7.5). Different compounds were dissolved in dimethylsulfoxide and added to the cells at a final concentration of 10 ppm, 100 ppm 500 ppm and 1000 ppm. The cells were then preincubated with the test agent for 30 min, 4 h, 8 h or 24 h. After this pre-incubation period, the natural substrate Nα-(3-hydroxy-3-methyl-hexanoyl)-glutamine was added (1 mM final concentration) and the cells were further incubated for 90 min. The released 3-hydroxy-3-methyl-hexanoic acid was determined by GC-analysis and compared to control samples to assess the […] malodor reducing capacity of a given compound in the bacterial cells. The samples were then further analysed to determine the cleavage of the synthetic compound by the action of the bacterial enzymes.

Another assay deals with Ax30. The assay can be described thus: Inhibition of release of 3-hydroxy-3-methyl-hexanoic acid in different bacterial species. The settings on record: Arthrobacter woluwensis. As for the experimental part: as §1, with “The cells were then preincubated with the test agent for 30 min, 4 h, 8 h or 24 h.” left out
(§2) The inhibition of malodour release was tested on different bacterial species, all isolated from the human axilla. The method from Example 2 was used.

The test system of a further assay is Ax52. The assay is described as above. The note with it: Corynebacterium mucifaciens. As for the experimental part:
as §1, with “The cells were then preincubated with the test agent for 30 min, 4 h, 8 h or 24 h.” left out
as §2

For another assay, the system named is Ax73. The assay is described as above. The note with it: Corynebacterium coyleae. As for the experimental part: as §1, with “The cells were then preincubated with the test agent for 30 min, 4 h, 8 h or 24 h.” left out
as §2

The subject of a further assay is Ax43. The assay is described as above. The settings on record: Corynebacterium tuberculostearicum. As for the experimental part: as §1, §2
Assay [1] concerns Ax20, Ax30, Ax43, Ax52, Ax73. The assay can be described thus: Inhibition of release of 3-hydroxy-3-methyl-hexanoic acid, average over bacterial species. The note with it: for inhibition at 10 ppm / inhibition at 100 ppm: average of Ax20, Ax30, Ax43, Ax52, Ax73. The method, then:
as §1, with “The cells were then preincubated with the test agent for 30 min, 4 h, 8 h or 24 h.” left out
as §2

Where [2] appears, read: AX20, preincubation 0.5 h, 10 ppm test compound, read-out: % inhibition of the release of 3-hydroxy-3-methyl-hexanoic acid.
Where [3] appears, read: AX20, preincubation 0.5 h, 100 ppm test compound, read-out: % inhibition of the release of 3-hydroxy-3-methyl-hexanoic acid.
Setting [4] is: AX20, preincubation 4 h, 10 ppm test compound, read-out: % inhibition of the release of 3-hydroxy-3-methyl-hexanoic acid.
The mark [5] stands for this setting: AX20, preincubation 4 h, 100 ppm test compound, read-out: % inhibition of the release of 3-hydroxy-3-methyl-hexanoic acid.
Setting [6] is: AX20, preincubation 8 h, 10 ppm test compound, read-out: % inhibition of the release of 3-hydroxy-3-methyl-hexanoic acid.
[7] abbreviates: AX20, preincubation 8 h, 100 ppm test compound, read-out: % inhibition of the release of 3-hydroxy-3-methyl-hexanoic acid.
Where [8] appears, read: AX20, preincubation 24 h, 10 ppm test compound, read-out: % inhibition of the release of 3-hydroxy-3-methyl-hexanoic acid.
Where [9] appears, read: AX20, preincubation 24 h, 100 ppm test compound, read-out: % inhibition of the release of 3-hydroxy-3-methyl-hexanoic acid.
[10] abbreviates: AX20, 100 ppm test compound, method of example 2, preincubation time not stated, read-out: % Inhibition of release of 3-hydroxy-3-methyl-hexanoic acid (100 ppm test compound).

We go through four molecules from patent publication US9198845B2, “Glutamine derivatives as deodorants” (Givaudan S.A., priority 2010, dated 2015).

The structures appear in SMILES notation. Where two headings read alike, the source gives them in different places.

The inhibition is the change of the read-out against control, counted positive when it falls.

Take `CCCCC(CC)COC(=O)N[C@@H](CCC(N)=O)C(=O)O` (stereo partly drawn) [Compound II, reference compound]: the inhibition at 10 ppm is 2.8% in the assay with Corynebacterium Ax 20 (setting [2]), -4.4% with Corynebacterium Ax 20 (setting [4]), 8.3% with Corynebacterium Ax 20 (setting [6]) and -1% in the assay on Corynebacterium Ax 20 (setting [8]). Also, the inhibition at 100 ppm was 33.4% in the assay on Corynebacterium Ax 20 (setting [3]), -25.2% with Corynebacterium Ax 20 (setting [5]), -9.8% in the assay with Corynebacterium Ax 20 (setting [7]) and -13.3% in the assay with Corynebacterium Ax 20 (setting [9]). The inhibition at 500 ppm in the assay on Corynebacterium Ax 20 (AX20, preincubation 0.5 h) is 76.6%; with Corynebacterium Ax 20 (AX20, preincubation 4 h), 59.9%; with Corynebacterium Ax 20 (AX20, preincubation 8 h), -5.6%; with Corynebacterium Ax 20 (AX20, preincubation 24 h) it was -28.8%. The inhibition at 1000 ppm in the assay on Corynebacterium Ax 20 (AX20, preincubation 0.5 h) was 83%; in the assay on Corynebacterium Ax 20 (AX20, preincubation 4 h), 79.5%; in the assay with Corynebacterium Ax 20 (AX20, preincubation 8 h), 41.3%; in the assay with Corynebacterium Ax 20 (AX20, preincubation 24 h) it was -23.1%. Moreover, in the assay with Corynebacterium Ax 20, the “kind of inhibition (true inhibitor or alternative substrate)” value is given as “alternative substrate”. In addition, the “IC 50 (Concentration for 50% inhibition of malodour release)” value in the assay on Corynebacterium Ax 20 (preincubation time 0.5 h) is given as 253.3 ppm; in the assay on Corynebacterium Ax 20 (preincubation time 4 h), 387.2 ppm; in the assay with Corynebacterium Ax 20 (preincubation time 8 h), more than 1000 ppm; in the assay on Corynebacterium Ax 20 (preincubation time 24 h), >>1000 ppm.

Take `CCCCC(CC)CNC(=O)N[C@@H](CCC(N)=O)C(=O)O` (stereo partly drawn) [Compound Ia, N2-[(2-ethylhexylamino)carbonyl]-L-glutamine]: the “inhibitory activity compared to compound II” value in the assay with Corynebacterium Ax 20 (0.5 h preincubation time) is recorded as more than 25 fold; with Corynebacterium Ax 20 (8 h preincubation time) it was more than 100 times. Besides, the “inhibition of malodour release” value is 58.8 with Corynebacterium Ax 20 (10 ppm combined with Cosmocil CQ 100 ppm); 75.6 with Corynebacterium Ax 20 (10 ppm combined with Cosmocil CQ 200 ppm); 85.2 with Corynebacterium Ax 20 (10 ppm combined with Cosmocil CQ 500 ppm); 85.9 with Corynebacterium Ax 20 (100 ppm combined with Cosmocil CQ 100 ppm); 95.6 with Corynebacterium Ax 20 (100 ppm combined with Cosmocil CQ 200 ppm). The inhibition at 100 ppm in the assay on Corynebacterium Ax 20 (setting [10]) came out at 79.8%; in the assay with Corynebacterium Ax 20 (AX20, Ax20, preincubation 0.5 h, 100 ppm, read-out: % inhibition of release of 3-hydroxy-3-methyl-hexanoic acid), 81%; in the assay on Corynebacterium Ax 20 (AX20, Ax20, preincubation 2 h, 100 ppm, read-out: % inhibition of release of 3-hydroxy-3-methyl-hexanoic acid), 86%; with Corynebacterium Ax 20 (AX20, Compound Ia, 100 ppm alone (Cosmocil CQ 0 ppm), read-out: inhibition of malodour release) it was 75.8%; in the assay on Corynebacterium Ax 20 (setting [3]), 75.8%; with Corynebacterium Ax 20 (setting [5]), 81.2%. In addition, the inhibition at 100 ppm with Corynebacterium Ax 20 (setting [7]) is 86%; in the assay on Corynebacterium Ax 20 (setting [9]), 83.2%; in the assay on Ax30 (preincubation 0.5 h), 100%; in the assay with Ax30 (preincubation 2 h), 100%; with Ax52 (preincubation 0.5 h) it was 83%; in the assay on Ax52 (preincubation 2 h), 94%. Further, the inhibition at 100 ppm with Ax73 (preincubation 0.5 h) came out at 87%; in the assay on Ax73 (preincubation 2 h) it was 94%; in the assay on Ax43 (preincubation 0.5 h) it was 97%; in the assay with Ax43 (preincubation 2 h), 99%; in assay [1] (preincubation 0.5 h) it was 89.6%; in assay [1] (preincubation 2 h), 94.6%. Also, the inhibition at 10 ppm with Corynebacterium Ax 20 (AX20, Ax20, preincubation 0.5 h, 10 ppm, read-out: % inhibition of release of 3-hydroxy-3-methyl-hexanoic acid) is 51%; in the assay on Corynebacterium Ax 20 (AX20, Ax20, preincubation 2 h, 10 ppm, read-out: % inhibition of release of 3-hydroxy-3-methyl-hexanoic acid), 50%; with Corynebacterium Ax 20 (AX20, Compound Ia, 10 ppm alone (Cosmocil CQ 0 ppm), read-out: inhibition of malodour release), 61%; in the assay with Corynebacterium Ax 20 (setting [2]), 61%; in the assay on Corynebacterium Ax 20 (setting [4]), 52.2%; with Corynebacterium Ax 20 (setting [6]), 65.2%. Besides, the inhibition at 10 ppm was 19.9% in the assay with Corynebacterium Ax 20 (setting [8]); 95% in the assay with Ax30 (preincubation 0.5 h); 93% in the assay with Ax30 (preincubation 2 h); 77% in the assay with Ax52 (preincubation 0.5 h); 86% with Ax52 (preincubation 2 h); 107% in the assay with Ax73 (preincubation 0.5 h). Further, the inhibition at 10 ppm in the assay on Ax73 (preincubation 2 h) was determined as 70%; in the assay with Ax43 (preincubation 0.5 h) it was 93%; in the assay on Ax43 (preincubation 2 h) it was 97%; in assay [1] (preincubation 0.5 h), 84.6%; in assay [1] (preincubation 2 h), 79.2%. Also, the inhibition at 500 ppm in the assay with Corynebacterium Ax 20 (AX20, preincubation 0.5 h) was determined as 92.4%; in the assay on Corynebacterium Ax 20 (AX20, preincubation 4 h), 100%; in the assay on Corynebacterium Ax 20 (AX20, preincubation 8 h), 100%; in the assay on Corynebacterium Ax 20 (AX20, preincubation 24 h), 100%. Moreover, the inhibition at 1000 ppm in the assay with Corynebacterium Ax 20 (AX20, preincubation 0.5 h) is 92.5%; in the assay with Corynebacterium Ax 20 (AX20, preincubation 4 h), 91.5%; in the assay with Corynebacterium Ax 20 (AX20, preincubation 8 h), 91.8%; in the assay on Corynebacterium Ax 20 (AX20, preincubation 24 h), 89.6%. In the assay with Corynebacterium Ax 20, the “kind of inhibition (true inhibitor or alternative substrate)” value is “true inhibitor”. The efficacy as inhibitors entry in the assay on Corynebacterium Ax 20 is reported as “particularly good efficacy as inhibitors”. Also, the “IC 50 (Concentration for 50% inhibition of malodour release)” value is recorded as less than 10 ppm with Corynebacterium Ax 20 (preincubation time 0.5 h), less than 10 ppm in the assay with Corynebacterium Ax 20 (preincubation time 4 h), less than 10 ppm in the assay on Corynebacterium Ax 20 (preincubation time 8 h) and 52.8 ppm in the assay on Corynebacterium Ax 20 (preincubation time 24 h). In addition, the “activity in different bacterial species” value in assay [1] (conclusion from Table 4) is given as “active in all bacterial species”.

`NC(=O)CC[C@H](NC(=O)NCc1ccccc1)C(=O)O` [Compound Ib, N2-[(benzylamino)carbonyl]-L-glutamine]: the inhibition at 100 ppm in the assay with Corynebacterium Ax 20 (setting [10]) turned out to be 61%. Besides, the efficacy as inhibitors result in the assay on Corynebacterium Ax 20 was “particularly good efficacy as inhibitors”.

For the molecule `NC(=O)CC[C@H](NC(=O)Nc1cccc(Cc2ccccc2)c1)C(=O)O` [Example 1c, N2-[(3-benzylphenylamino)carbonyl]-L-glutamine], the inhibition at 100 ppm with Corynebacterium Ax 20 (setting [10]) was found to be 71%.
